Laboratory results taken from PubChem BioAssay (NCI).
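Assay format: 96-well plates, 48-hour exposure. Here, GI50 denotes the concentration required for 50% inhibition of growth. TGI is the concentration that stops growth completely.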

Tests used:
Experiment in all cases: growth of human tumour cells (NCI), 48 h
BT-549 breast = tested on: BT-549 breast
MDA-MB-231 breast = tested on: MDA-MB-231 breast
SK-MEL-28 melanoma = tested on: SK-MEL-28 melanoma
SK-OV-3 ovarian = tested on: SK-OV-3 ovarian
NCI-H522 lung = tested on: NCI-H522 lung
M14 melanoma = tested on: M14 melanoma
OVCAR-5 ovarian = tested on: OVCAR-5 ovarian
COLO 205 colon = tested on: COLO 205 colon

Cc1nc2sc3c(N)ncnc3c2c(C)c1C
GI50 (BT-549 breast): > 25 µM
TGI (BT-549 breast): > 25 µM
GI50 (MDA-MB-231 breast): > 25 µM
TGI (MDA-MB-231 breast): > 25 µM
GI50 (SK-MEL-28 melanoma): > 25 µM
TGI (SK-MEL-28 melanoma): > 25 µM
GI50 (SK-OV-3 ovarian): > 25 µM
TGI (SK-OV-3 ovarian): > 25 µM
GI50 (NCI-H522 lung): > 25 µM
TGI (NCI-H522 lung): > 25 µM
GI50 (M14 melanoma): > 25 µM
TGI (M14 melanoma): > 25 µM
GI50 (OVCAR-5 ovarian): > 25 µM
TGI (OVCAR-5 ovarian): > 25 µM
GI50 (COLO 205 colon): > 25 µM
TGI (COLO 205 colon): > 25 µM

CC(=O)Nc1ccc(S(=O)(=O)N=S(C)C)cc1
TGI (BT-549 breast): > 100 µM
TGI (MDA-MB-231 breast): > 100 µM
TGI (SK-MEL-28 melanoma): > 100 µM
TGI (SK-OV-3 ovarian): > 100 µM
TGI (NCI-H522 lung): > 100 µM
TGI (M14 melanoma): > 100 µM
TGI (OVCAR-5 ovarian): > 100 µM
TGI (COLO 205 colon): > 100 µM

COc1cc2c3c(n(CCCNCCCNCCN)c(=O)c2cc1OC)-c1cc2c(cc1C3=O)OCO2
GI50 (MDA-MB-231 breast): 28.8 µM
TGI (MDA-MB-231 breast): > 100 µM
GI50 (SK-MEL-28 melanoma): 48.5 µM
TGI (SK-MEL-28 melanoma): > 100 µM
GI50 (SK-OV-3 ovarian): > 100 µM
TGI (SK-OV-3 ovarian): > 100 µM
GI50 (NCI-H522 lung): 15.3 µM
TGI (NCI-H522 lung): 85.1 µM
GI50 (M14 melanoma): 53.9 µM
TGI (M14 melanoma): > 100 µM
GI50 (COLO 205 colon): 23.8 µM
TGI (COLO 205 colon): > 100 µM

COc1ccc(C(=O)c2cc3c(N)c(C(=O)Nc4cccc(Br)c4C)sc3nc2C)cc1
GI50 (BT-549 breast): 0.123 µM
TGI (BT-549 breast): > 100 µM
GI50 (MDA-MB-231 breast): 0.13 µM
TGI (MDA-MB-231 breast): 17.3 µM
GI50 (SK-MEL-28 melanoma): > 100 µM
TGI (SK-MEL-28 melanoma): > 100 µM
GI50 (SK-OV-3 ovarian): 0.102 µM
TGI (SK-OV-3 ovarian): > 100 µM
GI50 (NCI-H522 lung): 0.0418 µM
TGI (NCI-H522 lung): > 100 µM
GI50 (M14 melanoma): 0.0267 µM
TGI (M14 melanoma): > 100 µM
GI50 (OVCAR-5 ovarian): 0.187 µM
TGI (OVCAR-5 ovarian): > 100 µM
GI50 (COLO 205 colon): 0.22 µM
TGI (COLO 205 colon): 0.987 µM

C#CC1(O)C(COP(=O)(O)OCC2OC(n3cc(F)c(=O)[nH]c3=O)CC2O)OC(n2ccc(N)nc2=O)C1O (configuration not stated)
GI50 (BT-549 breast): < 0.019 µM
TGI (BT-549 breast): 2.52 µM
GI50 (MDA-MB-231 breast): < 0.0133 µM
TGI (MDA-MB-231 breast): 0.315 µM
GI50 (SK-MEL-28 melanoma): < 0.01 µM
TGI (SK-MEL-28 melanoma): 0.378 µM
GI50 (SK-OV-3 ovarian): > 100 µM
TGI (SK-OV-3 ovarian): > 100 µM
GI50 (NCI-H522 lung): < 0.01 µM
TGI (NCI-H522 lung): > 100 µM
GI50 (M14 melanoma): < 0.0201 µM
TGI (M14 melanoma): 0.74 µM
GI50 (OVCAR-5 ovarian): 0.309 µM
TGI (OVCAR-5 ovarian): > 59.1 µM
GI50 (COLO 205 colon): < 0.01 µM
TGI (COLO 205 colon): 0.96 µM

COc1cc(-c2nc3ccccc3o2)cc(CN2CCCCC2)c1O
GI50 (BT-549 breast): 2.45 µM
TGI (BT-549 breast): 9.16 µM
GI50 (MDA-MB-231 breast): 12.2 µM
TGI (MDA-MB-231 breast): > 100 µM
GI50 (SK-MEL-28 melanoma): 1.97 µM
TGI (SK-MEL-28 melanoma): 4.12 µM
GI50 (SK-OV-3 ovarian): 30.2 µM
TGI (SK-OV-3 ovarian): > 74.1 µM
GI50 (NCI-H522 lung): 3.26 µM
TGI (NCI-H522 lung): 14.2 µM
GI50 (M14 melanoma): 1.48 µM
TGI (M14 melanoma): 3.26 µM
GI50 (OVCAR-5 ovarian): 5.31 µM
TGI (OVCAR-5 ovarian): 20.7 µM
GI50 (COLO 205 colon): 2.38 µM
TGI (COLO 205 colon): 4.6 µM

N#Cc1nc(C#N)c(Sc2ccccc2)c(Sc2ccccc2)c1Sc1ccccc1
GI50 (BT-549 breast): 0.21 µM
TGI (BT-549 breast): 4.27 µM
GI50 (MDA-MB-231 breast): 0.296 µM
TGI (MDA-MB-231 breast): 0.773 µM
GI50 (SK-MEL-28 melanoma): 1.48 µM
TGI (SK-MEL-28 melanoma): 2.89 µM
GI50 (SK-OV-3 ovarian): 3.27 µM
TGI (SK-OV-3 ovarian): 9.01 µM
GI50 (NCI-H522 lung): 0.208 µM
TGI (NCI-H522 lung): 0.645 µM
GI50 (OVCAR-5 ovarian): 2.34 µM
TGI (OVCAR-5 ovarian): 4.68 µM
GI50 (COLO 205 colon): 0.719 µM
TGI (COLO 205 colon): 2.03 µM

CCCCCCCCCCCCN=C(N)c1ccc(N2CCN(c3ccc(C(N)=NCCCCCCCCCCCC)cc3)CC2)cc1
GI50 (MDA-MB-231 breast): 10.3 µM
TGI (MDA-MB-231 breast): 20 µM
GI50 (SK-MEL-28 melanoma): 13.3 µM
TGI (SK-MEL-28 melanoma): 26.9 µM
GI50 (SK-OV-3 ovarian): 19.5 µM
TGI (SK-OV-3 ovarian): 34.1 µM
GI50 (NCI-H522 lung): 3.42 µM
TGI (NCI-H522 lung): 31.2 µM
GI50 (M14 melanoma): 7.82 µM
TGI (M14 melanoma): 16.4 µM
GI50 (OVCAR-5 ovarian): 7.16 µM
TGI (OVCAR-5 ovarian): 14.3 µM
GI50 (COLO 205 colon): 11.6 µM
TGI (COLO 205 colon): 24.4 µM
